Laboratory results taken from patent publication US20250064804A1, “COMBINATION THERAPY FOR TREATING ABNORMAL CELL GROWTH” (Verastem, Inc., priority 2021, published 2025).

What was measured:
[1] = system: human KRAS mutant pancreatic cancer cell lines; experiment: Proliferation assay (live cell counting) with Bliss synergy analysis; format: cell-based; settings: 5 days, panel of 4 cell lines, 2D conditions
Method: Parental human KRAS mutant pancreatic cancer cell lines were grown in 2D conditions. Briefly, cells were seeded in 96-well plates and after an overnight incubation (17-22 hours), cells were treated with the RAF/MEK clamp avutometinib (VS-6766)+/− the autophagy pathway inhibitor chloroquine (CQ) or apilimod (AP) for 5 days. Following drug treatment, live cell counting was performed and plotted to quantify effects on proliferation. Bliss synergy analysis were performed to calculate synergy scores between avutometinib+chloroquine and avutometinib+apilimod.
Proliferation assays were performed to determine whether chloroquine (CQ) or apilimod (AP) augmented the anti-proliferative activity of avutometinib in a panel of 4 human KRAS mutant pancreatic cancer cell lines (FIG. 2). Following drug treatment, live cell counting was performed and plotted to quantify effects on proliferation. Heatmaps indicating BLISS synergy scores are shown (Red=synergy, white=additivity, green=antagonism).

[2] = system: Human KRAS mutant pancreatic cancer cell lines stably expressing a tandem fluorescent GFP-LC3-RFP-LC3ΔG reporter; experiment: Autophagic flux (GFP-LC3-RFP-LC3ΔG reporter, flow cytometry); format: cell-based; settings: 1 μM avutometinib, 24 hours, vs vehicle (DMSO); all 3 cell lines tested; 2D conditions
Method: Human KRAS mutant pancreatic cancer cell lines stably expressing a tandem fluorescent GFP-LC3-RFP-LC3ΔG reporter were grown in 2D conditions. Briefly, cells were seeded in 96-well plates and after an overnight incubation (17-22 hours), cells were treated with 1 μM of the RAF/MEK clamp avutometinib (VS-6766) for 24 hours. Following treatment, cells were collected and changes in autophagic flux were measured by flow cytometry. Autophagic flux was quantified by calculating the ratio of RFP/GFP in cell lines tested. Autophagic flux was assessed in a panel of 3 human KRAS mutant pancreatic cancer cell lines stably expressing a tandem fluorescent GFP-LC3-RFP-LC3ΔG reporter (FIG. 1). […] In FIG. 1, human KRAS mutant pancreatic cancer cell lines stably expressing a tandem fluorescent GFP-LC3-RFP-LC3ΔG reporter were treated with vehicle (DMSO) or avutometinib for 24 hours. Following treatment, cells were collected and changes in autophagic flux were measured by flow cytometry. Autophagic flux was quantified by calculating the ratio of RFP/GFP in cell lines tested.

Compound: CNS(=O)(=O)Nc1nccc(Cc2c(C)c3ccc(Oc4ncccn4)cc3oc2=O)c1F [avutometinib]
- Bliss synergy with apilimod in reducing cell viability ([1]; avutometinib + apilimod (AP)): synergistic
- Bliss synergy with chloroquine in reducing cell viability ([1]; avutometinib + chloroquine (CQ)): synergistic
- increase of autophagic flux (ratio of RFP/GFP) [2]: two-to six
